Test results taken from the supplement of paper PMC9663587.

Columns and labels:
[1] = compound: CC(=O)c1c(C)c2cnc(Nc3ccc(N4CCNCC4)cn3)nc2n(C2CCCC2)c1=O
[2] = compound: CNc1nc(-c2ccc3c(N)n[nH]c3c2)cc(N2C[C@@H](C(=O)NC3CCCCC3)CC[C@H]2C)n1
Flavopiridol = compound: CN1CC[C@H](c2c(O)cc(O)c3c(=O)cc(-c4ccccc4Cl)oc23)[C@H](O)C1 [Flavopiridol]
Volasertib/BI6727 = compound: CC[C@@H]1C(=O)N(C)c2cnc(Nc3ccc(C(=O)N[C@H]4CC[C@H](N5CCN(CC6CC6)CC5)CC4)cc3OC)nc2N1C(C)C [Volasertib/BI6727]
[3] = compound: CO[C@@H](C)Cn1c(=O)n(C)c2cnc3ccc(-c4cncc(C(C)(C)O)c4)cc3c21
Torin2 = compound: C1=CC(=CC(=C1)N2C(=O)C=CC3=CN=C4C=CC(=CC4=C32)C5=CN=C(C=C5)N)C(F)(F)F [Torin2]
Taselisib/GDC0032 = compound: Cc1nc(-c2cn3c(n2)-c2ccc(-c4cnn(C(C)(C)C(N)=O)c4)cc2OCC3)n(C(C)C)n1 [Taselisib/GDC0032]
Pictilisib/GDC0941 = compound: CS(=O)(=O)N1CCN(Cc2cc3nc(-c4cccc5[nH]ncc45)nc(N4CCOCC4)c3s2)CC1 [Pictilisib/GDC0941]
INK128/MLN0128 = compound: CC(C)n1nc(-c2ccc3oc(N)nc3c2)c2c(N)ncnc21 [INK128/MLN0128]
Ipatasertib/GDC0068 = compound: CC(C)NC[C@@H](C(=O)N1CCN(c2ncnc3c2[C@H](C)C[C@H]3O)CC1)c1ccc(Cl)cc1 [Ipatasertib/GDC0068]
Dasatinib = compound: Cc1nc(Nc2ncc(C(=O)Nc3c(C)cccc3Cl)s2)cc(N2CCN(CCO)CC2)n1 [Dasatinib]
AZD7762 = compound: NC(=O)Nc1cc(-c2cccc(F)c2)sc1C(=O)N[C@H]1CCCNC1 [AZD7762]
senexin b = compound: CN1CCN(C(=O)c2ccc3cc(CCNc4ncnc5ccc(C#N)cc45)ccc3c2)CC1 [senexin b]
Tivantinib/ARQ197 = compound: O=C1NC(=O)[C@@H](c2cn3c4c(cccc24)CCC3)[C@@H]1c1c[nH]c2ccccc12 [Tivantinib/ARQ197]
AZD6738 = compound: C[C@@H]1COCCN1c1cc(C2([S@](C)(=N)=O)CC2)nc(-c2cc[nH]c3nccc2-3)n1 [AZD6738]
TGX221 = compound: CC1=CN2C(=O)C=C(N=C2C(=C1)C(C)NC3=CC=CC=C3)N4CCOCC4 [TGX221]
Alpelisib/BYL719 = compound: Cc1nc(NC(=O)N2CCC[C@H]2C(N)=O)sc1-c1ccnc(C(C)(C)C(F)(F)F)c1 [Alpelisib/BYL719]
AZD1775 = compound: C=CCn1c(=O)c2cnc(Nc3ccc(N4CCN(C)CC4)cc3)nc2n1-c1cccc(C(C)(C)O)n1 [AZD1775]
Olaparib/AZD2281 = compound: O=C(c1cc(Cc2n[nH]c(=O)c3ccccc23)ccc1F)N1CCN(C(=O)C2CC2)CC1 [Olaparib/AZD2281]
[4] = compound: CC(=O)Nc1cccc(-n2c(=O)n(C3CC3)c(=O)c3c(Nc4ccc(I)cc4F)n(C)c(=O)c(C)c32)c1
[5] = compound: COc1ccc2c(c1)[C@]1(C[C@H]1c1ccc3c(/C=C/c4ccc(CN5C[C@@H](C)O[C@@H](C)C5)cc4)n[nH]c3c1)C(=O)N2
Doxorubicin = compound: COc1cccc2c1C(=O)c1c(O)c3c(c(O)c1C2=O)C[C@@](O)(C(=O)CO)C[C@@H]3O[C@H]1C[C@H](N)[C@H](O)[C@H](C)O1 [Doxorubicin]
THZ1 = compound: CN(C)C/C=C/C(=O)Nc1ccc(C(=O)Nc2cccc(Nc3ncc(Cl)c(-c4c[nH]c5ccccc45)n3)c2)cc1 [THZ1]
THZ531 = compound: CN(C)C/C=C/C(=O)Nc1ccc(C(=O)N2CCC[C@@H](Nc3ncc(Cl)c(-c4c[nH]c5ccccc45)n3)C2)cc1 [THZ531]
R0-3306 = compound: C1=CC2=C(C=CC(=C2)C=C3C(=O)NC(=NCC4=CC=CS4)S3)N=C1 [R0-3306]
Cediranib/AZD2171 = compound: COc1cc2c(Oc3ccc4[nH]c(C)cc4c3F)ncnc2cc1OCCCN1CCCC1 [Cediranib/AZD2171]
ABT-737 = compound: CN(C)CC[C@H](CSc1ccccc1)Nc1ccc(S(=O)(=O)NC(=O)c2ccc(N3CCN(Cc4ccccc4-c4ccc(Cl)cc4)CC3)cc2)cc1[N+](=O)[O-] [ABT-737]
Rucaparib = compound: CNCc1ccc(-c2[nH]c3cc(F)cc4c3c2CCNC4=O)cc1 [Rucaparib]
LEE011/Ribociclib = compound: CN(C)C(=O)c1cc2cnc(Nc3ccc(N4CCNCC4)cn3)nc2n1C1CCCC1 [LEE011/Ribociclib]
[6] = compound: CCC1=CN=CN=C1N2CCN(CC2)CC3=NC4=C(N3)C=C(C=C4)C(F)(F)F
BVD523 = compound: CC(C)Nc1cc(-c2c[nH]c(C(=O)N[C@H](CO)c3cccc(Cl)c3)c2)c(Cl)cn1 [BVD523]
AZD2014 = compound: CNC(=O)c1cccc(-c2ccc3c(N4CCOC[C@@H]4C)nc(N4CCOC[C@@H]4C)nc3n2)c1 [AZD2014]
[7] = compound: Cc1nn(C)c(COc2ccc(N3CCN(S(=O)(=O)N(C)C)CC3)cc2)c1-c1cccc2c(CCCOc3cccc4ccccc34)c(C(=O)O)n(CCN3CCOCC3)c12
Neratinib/HKI272 = compound: CCOc1cc2ncc(C#N)c(Nc3ccc(OCc4ccccn4)c(Cl)c3)c2cc1NC(=O)/C=C/CN(C)C [Neratinib/HKI272]
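Further: breast cancer and non-malignant breast epithelial cell lines, Deep Dye Drop or Dye Drop imaging, nine half-log doses, GR normalized to time-zero plates and DMSO-only controls.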

Cell Line | GR50, 72 h [1] [µM] | GR50, 72 h [2] [µM] | GR50, 72 h (Flavopiridol) [µM] | GR50, 72 h (Volasertib/BI6727) [µM] | GR50, 72 h [3] [µM] | GR50, 72 h (Torin2) [µM] | GR50, 72 h (Taselisib/GDC0032) [µM] | GR50, 72 h (Pictilisib/GDC0941) [µM] | GR50, 72 h (INK128/MLN0128) [µM] | GR50, 72 h (Ipatasertib/GDC0068) [µM] | GR50, 72 h (Dasatinib) [µM] | GR50, 72 h (AZD7762) [µM] | GR50, 72 h (senexin b) [µM] | GR50, 72 h (Tivantinib/ARQ197) [µM] | GR50, 72 h (AZD6738) [µM] | GR50, 72 h (TGX221) [µM] | GR50, 72 h (Alpelisib/BYL719) [µM] | GR50, 72 h (AZD1775) [µM] | GR50, 72 h (Olaparib/AZD2281) [µM] | GR50, 72 h [4] [µM] | GR50, 72 h [5] [µM] | GR50, 72 h (Doxorubicin) [µM] | GR50, 72 h (THZ1) [µM] | GR50, 72 h (THZ531) [µM] | GR50, 72 h (R0-3306) [µM] | GR50, 72 h (Cediranib/AZD2171) [µM] | GR50, 72 h (ABT-737) [µM] | GR50, 72 h (Rucaparib) [µM] | GR50, 72 h (LEE011/Ribociclib) [µM] | GR50, 72 h [6] [µM] | GR50, 72 h (BVD523) [µM] | GR50, 72 h (AZD2014) [µM] | GR50, 72 h [7] [µM] | GR50, 72 h (Neratinib/HKI272) [µM]
BT474 | > 3.16 | 1.3 | 0.208 | 0.00821 | < 0.001 | 0.00998 | 0.00452 | 0.188 | 0.00873 | 0.521 | 0.0392 | 2 | 5.65 | 0.551 | 7.93 | > 10 | 0.309 | 0.621 | > 10 | > 1 | 0.0122 | 0.0267 | 0.0129 | 0.0537 | 3.53 | > 10 | 5.21 | > 10 | > 10 | > 10 | > 10 | < 0.001 | > 10 | 0.00166
BT549 | > 3.16 | > 10 | 0.161 | 0.00884 | 0.00122 | 0.00951 | 2.21 | 2.78 | 0.0166 | > 10 | 0.592 | 0.0668 | > 10 | 0.582 | 3.97 | > 10 | > 10 | 0.318 | > 10 | > 1 | 0.00315 | 0.00648 | 0.0528 | 0.302 | 5.42 | 3.64 | > 10 | > 10 | > 10 | > 10 | > 10 | 0.157 | > 10 | 1.99
HCC202 | > 3.16 | 0.842 | 0.14 | 0.015 | 0.00541 | 0.0137 | 0.00366 | 0.208 | 0.0112 | 3.36 | 0.0186 | 0.0585 | > 10 | 0.816 | 8.72 | > 10 | 0.465 | 0.051 | > 10 | > 1 | – | 0.0268 | 0.0212 | 0.0588 | 5.71 | 7.85 | > 10 | > 10 | > 10 | > 10 | > 10 | 0.00237 | > 10 | 0.0317
